Results published in US20260345792A1, “PROTACs AND HyT-PD MOLECULES FOR TARGETED PROTEIN DEGRADATION OF DCAF15 AND THEIR USE IN THE TREATMENT OF AMYLOIDOSIS” (KRÆFTENS BEKÆMPELSE, priority 2023, published 2026).
Where a SMILES comes first, the peptide text is derived from it. The star is where a group is joined. Cbz = O=C(OCc1ccccc1)*

What was measured:
HCT116 cells [1] = experiment: Clearance of protein aggregates: puromycin with Bafilomycin or MG132; assay type: cell-based; settings: with 5 μg/ml puromycin 4 h; 200 nM Bafilomycin or 5 μM MG132
Protocol: Cells were fixed and stained for ubiquitin and p62. A representative experiment is shown (n=3).
HCT116 cells were treated with 5 μg/ml puromycin for 4 h alone or in combination with 200 nM Bafilomycin-1 or 5 μM MG132. Cells were fixed and stained for ubiquitin and p62. A representative experiment is shown (n=3) (see FIG. 3A). The double positive puncta per cell was quantified (see FIG. 3B).

HCT116 cells; BE2C cells = experiment: Ubiquitin and p62 co-stained aggregates per cell after puromycin, by DCAF15 genotype; assay type: cell-based; settings: 5 μg/ml puromycin, 4 h; DCAF15−/− vs WT and reconstituted cell lines
Protocol: Cells were stained for ubiquitinated proteins and p62. Separate and merged channels from a representative experiment are shown (n>3).
HCT116 cells with indicated genotypes were treated with 5 μg/ml puromycin for 4 h or left untreated (NT) before fixation. Cells were stained for ubiquitinated proteins and p62. Separate and merged channels from a representative experiment are shown (n>3) (see FIG. 1A). The number of ubiquitin and p62 co-stained aggregates per cell were quantified (see FIG. 1B.).
BE2C cells with indicated genotypes were treated and analysed as above (n=3). Separate and merged channels from a representative experiment are shown (n>3) (see FIG. 1C). The number of ubiquitin and p62 co-stained aggregates per cell were quantified (see FIG. 1D.).
Cell lines: WT (wild-type), DCAF15−/− (CRISPR-mediated stable DCAF15−/− knock-out cells), DCAF15−/−+WT 3xF (DCAF15−/− cells reconstituted with WT DCAF15 with 3×flag-tag).

HCT116 cells [2] = experiment: Proliferation (confluency) and clonogenic survival after puromycin, by DCAF15 genotype; assay type: cell-based; settings: 5 μg/ml puromycin 4 h
Protocol: Confluency was recorded with imaging every 4 h. Representative experiments with technical triplicates are shown (n=3).
HCT116 cells were treated with 5 μg/ml puromycin for 4 h or left untreated before being released into normal growth media for 72 h. Confluency was recorded with imaging every 4 h, representative experiments with technical triplicates (n=3) are shown (see FIG. 4A.). HCT116 cells were treated with 5 μg/ml puromycin for 4 h before release into full media or left untreated for 7 days before fixation and crystal violet staining (see FIG. 4B.). Quantification of FIG. 4B as integrated density per well (see FIG. 4C).

DCAF15 = settings: Han et al., 2017 and WO 2022/169755; cited from earlier work
human cancer cell lines = settings: cited from earlier work

Row | SMILES | aggregate numbers in WT and reconstituted cell lines (HCT116 cells [1]) | re-appearance of aggregates in DCAF15−/− cells (HCT116 cells [1]) | ligand for DCAF15 (DCAF15) | further results
1 | CO/C1=C\C(C)=C\[C@@H](C)[C@@H](O)[C@@H](C)C/C(C)=C/C=C/[C@H](OC)[C@@H]([C@@H](C)[C@@H](O)[C@H](C)[C@@]2(O)C[C@@H](O)[C@H](C)[C@@H](C(C)C)O2)OC1=O [Bafilomycin A1] | enhance aggregate numbers in WT and reconstituted cell lines | we do not detect any re-appearance of aggregates in DCAF15−/− cells after treatments | – | –
2 | CC(C)C[C@@H](C=O)NC(=O)[C@H](CC(C)C)NC(=O)[C@H](CC(C)C)NC(=O)OCc1ccccc1 [MG132] (Cbz-Leu-Leu-Leu-aldehyde) | enhance aggregate numbers in WT and reconstituted cell lines | we do not detect any re-appearance of aggregates in DCAF15−/− cells after treatments | – | –
3 | COc1ccc(C[C@H](N)C(=O)N[C@H]2[C@@H](O)[C@H](n3cnc4c(N(C)C)ncnc43)O[C@@H]2CO)cc1 [Puromycin, puromycin] | – | – | – | protein aggregation (co-localization of ubiquitin and p62) (HCT116 cells; BE2C cells): significant reduction of aggregates in DCAF15−/− cells relative to WT and reconstituted cell lines; clonogenic survival, sensitivity of DCAF15−/− cells (HCT116 cells [2]; 7 days, crystal violet (FIGS. 4B and 4C)): insensitivity of DCAF15−/− cells to puromycin-induced toxicity; proliferation of DCAF15−/− cells (HCT116 cells [2]; release for 72 h (FIG. 4A)): DCAF15−/− cells remain undeterred by puromycin treatment; proliferation rates in WT and reconstituted cell lines (HCT116 cells [2]; release for 72 h (FIG. 4A)): significantly reduced proliferation rates
4 | NS(=O)(=O)c1ccc(S(=O)(=O)Nc2cccc3c(Cl)c[nH]c23)cc1 [indisulam] | – | – | act as ligands for DCAF15 | inhibition of proliferation (human cancer cell lines): inhibits the proliferation of certain human cancer cell lines
5 | O=C(NS(=O)(=O)c1ccc(Br)s1)c1ccc(Cl)cc1Cl [tasisulam] | – | – | act as ligands for DCAF15 | –
